# According to patent publication US9642831B2, “Substituted chromanes and method of use” (AbbVie S.á.r.l., priority 2014, dated 2017):
# Molecular target: F508delCFTR (Homo sapiens, UniProt P13569, DEL508-508)
# Assay: Cell Surface Expression-Horse Radish Peroxidase (CSE-HRP) assay
# Format: cell-based
# Design: expressed in transfected cells; host or cells: CFBE41o- human lung derived epithelial cell line, doxycycline-inducible
# Conditions: CFBE4lo-F508delCFTR-HRP cells; for EC50: 18-24 hours at 33° C., 8-point curve, highest concentration 20 μM, luminescence readout; for Emax: maximum % activity at any tested concentration, normalized to on-plate positive control (3 μM Example 1)
# Source text: Cell Surface Expression-Horse Radish Peroxidase (CSE-HRP) Assay:
# A cellular assay for measuring the F508delCFTR cell surface expression after correction with test compounds was developed in human lung derived epithelial cell line (CFBE4lo-) (Veit G et al, (2012) Mol Biol Cell. 23(21): 4188-4202). This was achieved by expressing the F508delCFTR mutation along with a horseradish peroxidase (HRP) in the fourth exofacial loop and then measuring the HRP activity using luminescence readout from these cells, CFBE4lo-F508delCFTR-HRP, that were incubated overnight with the test corrector compounds. Briefly, for this primary assay, the CFBE4lo-F508delCFTR-HRP cells were plated in 384-well plates (Greiner Bio-one; Cat 781080) at 4,000 cells/well along with 0.5 μg/mL doxycycline to induce the F508delCFTR-HRP expression and further incubated at 37° C., 5% CO2 for 72 hours. The test compounds were then added at the required concentrations and further incubated for 18-24 hours at 33° C. The highest concentration tested was 20 μM with an 8-point concentration response curve using a 3-fold dilution. Three replicate plates were run to determine one EC50. All plates contained negative controls (dimethyl sulfoxide, DMSO) and positive controls (3 μM of 3-[(2R,4R)-4-({[1-(2,2-difluoro-1,3-benzodioxol-5-yl)cyclopropyl]carbonyl}amino)-7-methoxy-3,4-dihydro-2H-chromen-2-yl]benzoic acid) as well as on-plate concentration response of the positive control. Post incubation, the plates were washed 5× times with Dulbecco's phosphate buffered saline (DPBS), followed by the addition of the HRP substrate, luminol (50 μL), and measuring the HRP activity using luminescence readout on EnVision® Multilabel Plate Reader (Perkin Elmer; product number 2104-0010). The raw counts from the experiment are analyzed using Accelrys® Assay Explorer v3.3.
# Z′ greater than 0.5 was used as passing quality control criteria for the plates.
# The Z′ is defined as: 1−[3*SDPositive Control+3*SDNegative Control/Absolute(MeanPositive Control−MeanNegative Control)] wherein “SD” is standard deviation.
# The % activity measured at each of the 8 test concentrations of the test compound was normalized to the on-plate positive control using the following formula: % activity=[(test compound response−DMSO response)/(positive control response−DMSO response)]*100
# The maximum % activity achieved for the test compound at any tested concentration is presented in Table 1 along with the EC50 calculated using the following general sigmoidal curve with variable Hill slope equation (described as Model 42 in the Accelrys® Assay Explorer v3.3 software): y=(a−d)/(1+(x/c)^b)+d
# General sigmoidal curve with concentration, response, top, bottom, EC50 and Hill slope.
# This model describes a sigmoidal curve with an adjustable baseline, a. The equation can be used to fit curves where response is either increasing or decreasing with respect to the independent variable, “x”.
# “x” is a concentration of drug under test.
# “a” is the maximum response, and “d” is the minimum response
# “c” is the inflection point (EC50) for the curve. That is, “y” is halfway between the lower and upper asymptotes when x=c.
# “b” is the slope-factor or Hill coefficient. The sign of b is positive when the response increases with increasing dose and is negative when the response decreases with increasing dose (inhibition).
# Sequence of F508delCFTR (P13569 with tags, fused parts or gaps DEL508-508): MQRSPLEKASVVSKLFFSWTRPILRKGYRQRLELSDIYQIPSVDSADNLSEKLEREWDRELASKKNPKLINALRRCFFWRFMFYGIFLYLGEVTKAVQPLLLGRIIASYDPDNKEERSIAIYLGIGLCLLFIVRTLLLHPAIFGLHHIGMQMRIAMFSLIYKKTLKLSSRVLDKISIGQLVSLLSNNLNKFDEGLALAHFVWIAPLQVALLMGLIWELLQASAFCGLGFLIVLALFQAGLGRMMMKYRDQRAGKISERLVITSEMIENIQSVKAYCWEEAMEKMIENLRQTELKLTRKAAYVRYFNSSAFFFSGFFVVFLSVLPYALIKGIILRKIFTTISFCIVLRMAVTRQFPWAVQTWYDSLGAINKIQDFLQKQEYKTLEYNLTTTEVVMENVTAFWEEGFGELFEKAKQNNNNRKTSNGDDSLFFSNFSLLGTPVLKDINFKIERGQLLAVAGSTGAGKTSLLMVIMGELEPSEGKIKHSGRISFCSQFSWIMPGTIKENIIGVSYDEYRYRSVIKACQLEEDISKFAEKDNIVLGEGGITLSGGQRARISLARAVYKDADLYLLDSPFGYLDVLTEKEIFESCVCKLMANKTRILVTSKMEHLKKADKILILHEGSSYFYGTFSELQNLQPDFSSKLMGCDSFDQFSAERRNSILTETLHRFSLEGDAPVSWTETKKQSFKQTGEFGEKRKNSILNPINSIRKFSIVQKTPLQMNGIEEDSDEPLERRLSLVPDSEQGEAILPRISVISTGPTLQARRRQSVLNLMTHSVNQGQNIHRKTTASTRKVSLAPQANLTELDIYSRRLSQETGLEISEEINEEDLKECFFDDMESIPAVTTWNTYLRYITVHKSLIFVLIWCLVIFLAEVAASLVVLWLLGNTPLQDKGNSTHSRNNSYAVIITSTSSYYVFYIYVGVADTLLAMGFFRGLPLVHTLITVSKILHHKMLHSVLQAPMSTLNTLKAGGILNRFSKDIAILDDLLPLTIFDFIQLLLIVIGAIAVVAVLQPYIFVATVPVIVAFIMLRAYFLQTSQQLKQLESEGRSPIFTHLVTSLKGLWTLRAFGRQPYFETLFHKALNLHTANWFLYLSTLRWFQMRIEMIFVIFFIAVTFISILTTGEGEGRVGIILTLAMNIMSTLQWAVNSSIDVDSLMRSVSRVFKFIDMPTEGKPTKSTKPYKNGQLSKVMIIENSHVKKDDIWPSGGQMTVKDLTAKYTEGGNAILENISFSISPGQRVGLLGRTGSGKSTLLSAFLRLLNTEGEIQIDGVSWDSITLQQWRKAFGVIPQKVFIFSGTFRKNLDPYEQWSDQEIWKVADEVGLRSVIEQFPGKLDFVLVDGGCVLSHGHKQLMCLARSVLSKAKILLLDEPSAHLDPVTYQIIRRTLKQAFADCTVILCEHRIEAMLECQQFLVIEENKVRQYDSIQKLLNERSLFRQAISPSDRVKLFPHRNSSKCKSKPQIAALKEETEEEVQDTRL
EC50 [nM],Emax [%],Structure (SMILES)
40,131,"COC(=O)c1ccc([C@H]2C[C@@H](NC(=O)C3(c4cc5c(cc4Br)OC(F)(F)O5)CC3)c3ccc(OC)cc3O2)cc1 [Example 202F, methyl 4-((2R,4R)-4-(1-(6-bromo-2,2-difluorobenzo[d][1,3]dioxol-5-yl)cyclopropanecarboxamido)-7-methoxychroman-2-yl)benzoate]"
690,135,"COc1ccc2c(c1)OC(c1ccc(OC)c(OC)c1)CC2NC(=O)C1(c2ccc3c(c2)OC(F)(F)O3)CC1 (centres unmarked) [Example 62, 1-(2,2-difluoro-1,3-benzodioxol-5-yl)-N-[2-(3,4-dimethoxyphenyl)-7-methoxy-3,4-dihydro-2H-chromen-4-yl]cyclopropanecarboxamide]"
3050,88,"COC(=O)c1cccc(C2CC(NC(=O)C3(c4ccc5c(c4)OC(F)(F)O5)CC3)c3ccc(OC)nc3O2)c1 (mixture of isomers) [Example 37, methyl 3-[4-({[1-(2,2-difluoro-1,3-benzodioxol-5-yl)cyclopropyl]carbonyl}amino)-7-methoxy-3,4-dihydro-2H-pyrano[2,3-b]pyridin-2-yl]benzoate]"
870,89,"O=C(NC1CC(c2ccc(Cl)cc2)Oc2ccccc21)C1(c2ccc3c(c2)OC(F)(F)O3)CC1 (centres unmarked) [Example 68, N-[2-(4-chlorophenyl)-3,4-dihydro-2H-chromen-4-yl]-1-(2,2-difluoro-1,3-benzodioxol-5-yl)cyclopropanecarboxamide]"
2260,82,"COC(=O)c1ccc([C@@H]2C[C@H](NC(=O)C3(c4ccc5c(c4)OC(F)(F)O5)CC3)c3ccc(OC)cc3O2)nc1 (stereo in doubt) [Example 161, methyl rel-6-[(2S,4S)-4-({[1-(2,2-difluoro-1,3-benzodioxol-5-yl)cyclopropyl]carbonyl}amino)-7-methoxy-3,4-dihydro-2H-chromen-2-yl]pyridine-3-carboxylate]"
4860,89,"CC(=O)N1CCC2(CC1)CC(NC(=O)C1(c3ccc4c(c3)OC(F)(F)O4)CC1)c1ccc(F)cc1O2 (centres unmarked) [Example 102, N-(1′-acetyl-7-fluoro-3,4-dihydrospiro[chromene-2,4′-piperidin]-4-yl)-1-(2,2-difluoro-1,3-benzodioxol-5-yl)cyclopropanecarboxamide]"
90,123,"COc1ccc2c(c1)O[C@@H](c1ccc(C(=O)O)cn1)C[C@H]2NC(=O)C1(c2ccc3c(c2)OC(F)(F)O3)CC1 (relative stereo) [Example 165, rel-6-[(2R,4R)-4-({[1-(2,2-difluoro-1,3-benzodioxol-5-yl)cyclopropyl]carbonyl}amino)-7-methoxy-3,4-dihydro-2H-chromen-2-yl]pyridine-3-carboxylic acid]"
3500,101,"CC1(C)C[C@@H](NC(=O)C2(c3ccc4c(c3)OC(F)(F)O4)CC2)c2ccc(F)cc2O1 [Example 86, 1-(2,2-difluoro-1,3-benzodioxol-5-yl)-N-[(4R)-7-fluoro-2,2-dimethyl-3,4-dihydro-2H-chromen-4-yl]cyclopropanecarboxamide]"
4100,51,"COc1ccc2c(c1)O[C@@H](C(=O)NC1CCS(=O)(=O)CC1)C[C@@H]2NC(=O)C1(c2ccc3c(c2)OC(F)(F)O3)CC1 (racemic) [Example 191, rac-(2R,4S)-4-({[1-(2,2-difluoro-1,3-benzodioxol-5-yl)cyclopropyl]carbonyl}amino)-N-(1,1-dioxidotetrahydro-2H-thiopyran-4-yl)-7-methoxy-3,4-dihydro-2H-chromene-2-carboxamide]"
800,142,"COC(=O)c1cccc([C@H]2C[C@@H](NC(=O)C3(c4ccc5c(c4)OC(F)(F)O5)CC3)c3cc(OC)ccc3O2)c1 [Example 21, methyl 3-[(2R,4R)-4-({[1-(2,2-difluoro-1,3-benzodioxol-5-yl)cyclopropyl]carbonyl}amino)-6-methoxy-3,4-dihydro-2H-chromen-2-yl]benzoate]"
2720,106,"C[C@@]1(C(F)F)C[C@@H](NC(=O)C2(c3ccc4c(c3)OC(F)(F)O4)CC2)c2ccc(Cl)cc2O1 [Example 83, N-[(2S,4R)-7-chloro-2-(difluoromethyl)-2-methyl-3,4-dihydro-2H-chromen-4-yl]-1-(2,2-difluoro-1,3-benzodioxol-5-yl)cyclopropanecarboxamide]"
670,106,"O=C(O)c1ccc([C@H]2C[C@@H](NC(=O)C3(c4ccc5c(c4)OC(F)(F)O5)CC3)c3ccccc3O2)nc1 (racemic) [Example 154, rac-6-[(2R,4R)-4-({[1-(2,2-difluoro-1,3-benzodioxol-5-yl)cyclopropyl]carbonyl}amino)-3,4-dihydro-2H-chromen-2-yl]pyridine-3-carboxylic acid]"
700,131,"COc1ccc2c(c1)OC(c1ccccc1)CC2NC(=O)C1(c2ccc3c(c2)OC(F)(F)O3)CC1 (centres unmarked) [Example 60, 1-(2,2-difluoro-1,3-benzodioxol-5-yl)-N-(7-methoxy-2-phenyl-3,4-dihydro-2H-chromen-4-yl)cyclopropanecarboxamide]"
600,104,"COC(=O)c1ccc([C@@H]2C[C@@H](NC(=O)C3(c4ccc5c(c4)OC(F)(F)O5)CC3)c3ccc(OC)cc3O2)nc1 (stereo in doubt) [Example 160, methyl rel-6-[(2S,4R)-4-({[1-(2,2-difluoro-1,3-benzodioxol-5-yl)cyclopropyl]carbonyl}amino)-7-methoxy-3,4-dihydro-2H-chromen-2-yl]pyridine-3-carboxylate]"
2470,101,"Cc1ccc2c(c1)O[C@@H](c1cccc(C(=O)O)c1)C[C@@H]2NC(=O)C1(c2ccc3c(c2)OC(F)(F)O3)CC1 [Example 15, 3-[(2R,4S)-4-({[1-(2,2-difluoro-1,3-benzodioxol-5-yl)cyclopropyl]carbonyl}amino)-7-methyl-3,4-dihydro-2H-chromen-2-yl]benzoic acid]"
3280,75,"O=C(N[C@@H]1CC(CF)(CF)Oc2ccccc21)C1(c2ccc3c(c2)OC(F)(F)O3)CC1 [Example 75, N-[(4R)-2,2-bis(fluoromethyl)-3,4-dihydro-2H-chromen-4-yl]-1-(2,2-difluoro-1,3-benzodioxol-5-yl)cyclopropanecarboxamide]"
> 20000,11,"O=C(O)c1csc([C@H]2C[C@H](NC(=O)C3(c4ccc5c(c4)OC(F)(F)O5)CC3)c3ccccc3O2)n1 (relative stereo) [Example 144, rel-2-[(2R,4S)-4-({[1-(2,2-difluoro-1,3-benzodioxol-5-yl)cyclopropyl]carbonyl}amino)-3,4-dihydro-2H-chromen-2-yl]-1,3-thiazole-4-carboxylic acid]"
5890,128,"O=C(NC1CC(c2ccccc2)Oc2ccccc21)C1(c2ccc3c(c2)OC(F)(F)O3)CC1 (centres unmarked) [Example 67, 1-(2,2-difluoro-1,3-benzodioxol-5-yl)-N-(2-phenyl-3,4-dihydro-2H-chromen-4-yl)cyclopropanecarboxamide]"
5140,27,"COC(=O)c1ccc2c(c1)[C@H](NC(=O)C1(c3ccc4c(c3)OC(F)(F)O4)CC1)C[C@H](C1CCCC(OC)C1)O2 (stereo partly drawn) [Example 46, methyl (2R,4R)-4-({[1-(2,2-difluoro-1,3-benzodioxol-5-yl)cyclopropyl]carbonyl}amino)-2-(3-methoxycyclohexyl)-3,4-dihydro-2H-chromene-6-carboxylate]"
